Test results reported in ChEMBL document CHEMBL1201862, “PubChem BioAssay data set” (2004).
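Interpolation was linear, between the two tested concentrations surrounding the appropriate level; five concentrations were tested over 48 hours in 96-well plates. The concentration for 50% growth inhibition is given as GI50.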 Calls of active or inactive are those of the source. Rule as the data show it: active = GI50 up to about 1.1 µM and inactive = higher.

Key:
Assay in all cases: NCI-60 cell line screen, 48 h
TK-10 = tested on: TK-10
A498 = tested on: A498
Malme-3M = tested on: Malme-3M
HCT-15 = tested on: HCT-15
EKVX = tested on: EKVX
NCI/ADR-RES = tested on: NCI/ADR-RES
ACHN = tested on: ACHN
SNB-19 = tested on: SNB-19
MDA-N = tested on: MDA-N
SK-OV-3 = tested on: SK-OV-3
HCC 2998 = tested on: HCC 2998
COLO 205 = tested on: COLO 205
SF-295 = tested on: SF-295
RXF 393 = tested on: RXF 393
SR = tested on: SR
Hs-578T = tested on: Hs-578T
UO-31 = tested on: UO-31
IGROV-1 = tested on: IGROV-1
A549 = tested on: A549
MOLT-4 = tested on: MOLT-4
786-0 = tested on: 786-0
HOP-62 = tested on: HOP-62
NCI-H226 = tested on: NCI-H226
K562 = tested on: K562
SW-620 = tested on: SW-620
OVCAR-3 = tested on: OVCAR-3
NCI-H460 = tested on: NCI-H460
RPMI-8226 = tested on: RPMI-8226
SK-MEL-28 = tested on: SK-MEL-28
MDA-MB-435 = tested on: MDA-MB-435
KM12 = tested on: KM12
U-251 = tested on: U-251
NCI-H23 = tested on: NCI-H23
HL-60 = tested on: HL-60
OVCAR-5 = tested on: OVCAR-5
DU-145 = tested on: DU-145
LOX IMVI = tested on: LOX IMVI
SK-MEL-5 = tested on: SK-MEL-5
OVCAR-4 = tested on: OVCAR-4
MDA-MB-231 = tested on: MDA-MB-231
SN12C = tested on: SN12C
HCT-116 = tested on: HCT-116
SK-MEL-2 = tested on: SK-MEL-2
CAKI-1 = tested on: CAKI-1
OVCAR-8 = tested on: OVCAR-8
M14 = tested on: M14
BT-549 = tested on: BT-549
MCF7 = tested on: MCF7
SF-539 = tested on: SF-539
HOP-92 = tested on: HOP-92
UACC-257 = tested on: UACC-257
CCRF-CEM = tested on: CCRF-CEM
HT-29 = tested on: HT-29
PC-3 = tested on: PC-3
NCI-H522 = tested on: NCI-H522
T47D = tested on: T47D
SF-268 = tested on: SF-268
UACC-62 = tested on: UACC-62
SNB-75 = tested on: SNB-75

Measured: GI50

CC(C)(C)c1ccc(OCCOc2ccc(C(C)(C)C)cc2NC=O)c(NC=O)c1
3.81 µM: HCT-15
inactive: TK-10 15.1 µM | A498 15.4 µM | Malme-3M 8.79 µM | EKVX 10.5 µM | NCI/ADR-RES 5.68 µM | ACHN 7.78 µM | SNB-19 18.2 µM | MDA-N 9.12 µM | SK-OV-3 20.9 µM | HCC 2998 5.12 µM | COLO 205 1.94 µM | SF-295 5.5 µM | RXF 393 8.77 µM | SR 11.7 µM | Hs-578T 12.5 µM | UO-31 5.69 µM | IGROV-1 11.3 µM | A549 5.73 µM | MOLT-4 2.79 µM | 786-0 8.17 µM | HOP-62 6.92 µM | NCI-H226 10.8 µM | K562 4.14 µM | SW-620 4.39 µM | OVCAR-3 14.4 µM | NCI-H460 4.01 µM | RPMI-8226 2.32 µM | SK-MEL-28 12.3 µM | MDA-MB-435 6.85 µM | KM12 3.77 µM | U-251 6.82 µM | NCI-H23 7.11 µM | HL-60 6.04 µM | OVCAR-5 22.4 µM | DU-145 17.9 µM | LOX IMVI 4.5 µM | SK-MEL-5 4.13 µM | OVCAR-4 7.01 µM | MDA-MB-231 11.4 µM | SN12C 15 µM | HCT-116 6.43 µM | SK-MEL-2 14.9 µM | CAKI-1 19.4 µM | OVCAR-8 11.8 µM | M14 5.48 µM | BT-549 15.6 µM | MCF7 4.7 µM | SF-539 8.77 µM | HOP-92 7 µM | UACC-257 5.85 µM | CCRF-CEM 2.06 µM | HT-29 3.08 µM | PC-3 8.71 µM | NCI-H522 6.7 µM | T47D 6.01 µM | SF-268 15.1 µM | UACC-62 12.5 µM | SNB-75 19.3 µM
